Test results published in patent US7670806B2, “ADP-ribosyl acceptor hydrolase 3 (ARH3) polypeptides and methods of use” (The United States of America as represented by the …, priority 2005, dated 2010).
Each block holds one molecule with its values, some of them ahead of it.

Experiments:
ARH3 = molecular target: T1, ARH3 (Mus musculus, UniProt Q8CG72); assay: Inhibition of ARH3-catalyzed hydrolysis of O-acetyl-ADP-ribose; format: biochemical
T1 construct: The entire coding regions were ligated into pGEX-2T expression vector; GST (N); made in house; host or cells: E. coli BL21 Rosetta
T1 sequence (Q8CG72 1-370): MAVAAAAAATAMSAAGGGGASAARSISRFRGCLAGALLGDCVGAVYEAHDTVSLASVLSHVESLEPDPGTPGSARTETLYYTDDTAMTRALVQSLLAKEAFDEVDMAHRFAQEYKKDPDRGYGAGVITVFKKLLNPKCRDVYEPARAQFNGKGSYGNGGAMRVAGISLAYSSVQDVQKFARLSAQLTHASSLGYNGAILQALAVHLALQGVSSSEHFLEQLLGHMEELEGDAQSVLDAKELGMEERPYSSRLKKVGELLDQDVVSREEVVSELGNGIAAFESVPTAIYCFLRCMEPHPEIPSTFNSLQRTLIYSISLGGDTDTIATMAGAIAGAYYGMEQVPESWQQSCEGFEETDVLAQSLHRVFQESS
Method: FIG. 15A is a graph of the results from an assay with 2 pmol of ARH3 and the indicated amount of ADP-ribose (●) or β-NAD (∘) in 200 μl for 2 h at 30° C., as described in FIG. 11B. FIG. 15B is a graph of the inhibition of ARH3 hydrolysis by ADP-ribose data schematized for Lineweaver-Burk plot.
Mouse ARH3 (2 pmol) and 2.5 μM O-acetyl-[^14C]ADP-ribose (5,000 cpm) in 200 μl of buffer containing 50 mM potassium phosphate (pH 7.0), 10 mM MgCl2 and 5 mM DTT were incubated for 2 h at 30° C., before separation of substrate and products using RP-HPLC as described below.
Hydrolysis of O-acetyl-[^14C]ADP-ribose catalyzed by ARH3. Assays containing the indicated concentration of O-acetyl-[^14C]-ADP-ribose (0.1 to 2 nmol, 1,000 to 20,000 cpm) and 1.5 pmol of ARH3 in 200 μl of buffer (50 mM KPO4 (pH 7.0), 10 mM MgCl2, 5 mM DTT) were incubated at 30° C. for 20 min. Substrate and products were separated using RP-HPLC. Amounts of product were corrected for ADP-ribose produced in the absence of ARH3 before calculation of hydrolysis rates.
ADP-ribose inhibited ARH3-catalyzed hydrolysis of 2.5 μM O-acetyl-ADP-ribose, ˜50% at a concentration of ca. 10 μM.

[1] = Poly(ADP-ribose) hydrolysis (autoradiography, high resolution PAGE, HPLC); format: biochemical; details: [32P]poly(ADP-ribose) or poly(ADP-ribose)PARP; 37° C.; autoradiography / PAGE / HPLC
Method: Poly(ADP-ribose) hydrolysis by autoradiography. [^32P]poly(ADP-ribose)PARP (500 ng of PARP with poly(ADP-ribose) was incubated (37° C., 2 h) with 2 μM ARH in 25 μl of 50 mM potassium phosphate buffer, pH 7.5, with or without 10 mM MgCl2 and/or 5 mM DTT. Reactions were stopped by adding 6 μl of 5× Laemmli buffer. Samples (20 μl) of proteins were separated by SDS-PAGE in 4-20% gels and transferred to nitrocellulose membranes that were exposed to X-ray film (Kodak) for 10 h.
Hydrolysis of poly(ADP-ribose) by PARG and ARH3. Purified [^32P] poly(ADP-ribose) (5.5×10^5 cpm, ˜300 nM ADP-ribose) was incubated for the indicated time at 37° C. in 25 μl of 50 mM potassium phosphate, pH 7.5, containing 10 mM MgCl2 and 5 mM DTT with enzyme or other additions as indicated and terminated by addition of 25 μl of 2× electrophoresis buffer (Invitrogen). [^32P]AMP was generated by incubation (37° C., 3 h) of 10 μM [^32P] NAD (10 μCi/reaction) with pyrophosphatase (40 units/mg from SIGMA, 1 mg/ml) in 25 μl of 50 mM KPO4, pH 7.5, and 10 mM MgCl2. [^32P] […]
Poly(ADP-ribose)PARP was used as substrate to assay potential poly(ADP-ribose) hydrolase activities of recombinant ARH1, 2 or 3. […] Fractions (1 ml) were collected for liquid scintillation counting to quantify [^14C]ADP-ribose, which was eluted in fractions from 34 min to 43 min. […]

[2] = Rafty et al. (2002), cited from earlier work

Inhibition of ARH3-catalyzed hydrolysis of O-acetyl-ADP-ribose (ARH3; 2.5 μM O-acetyl-ADP-ribose, inhibitor at ca. 10 μM, 2 pmol ARH3, 2 h at 30° C.): ~50%
Ki (ARH3; Lineweaver-Burk plot, substrate O-acetyl-ADP-ribose): 8.6 µM
Molecule: Nc1ncnc2c1ncn2[C@@H]1O[C@H](COP(=O)(O)OP(=O)(O)OC[C@H]2OC(O)[C@H](O)[C@@H]2O)[C@@H](O)[C@H]1O (some centres unmarked) [ADP-ribose]

Molecule: ARH1: 39-kDa ADP-ribose-(arginine) protein hydrolase, recombinant mouse or human
Poly(ADP-ribose) hydrolysis (in words) [1]: did not

Molecule: murine Nudix: murine Nudix family ADP-ribose pyrophosphatase (Rafty et al. 2002)
kcat, O-acetyl-ADP-ribose [2]: 0.78 ± 0.18 s⁻¹
Km ([2]; read-out: Km for O-acetyl-ADP-ribose): 45 ± 0.9 µM
